{"source": "patent US11117855B2", "about": "“Crystalline form of triethylenetetramine tetrahydrochloride and its pharmaceutical use” (Orphalan S.A., priority 2018, dated 2021)", "key": {"[1]": {"conditions": "helium pycnometry; for True Density: individual runs; for True Density MEAN: mean of runs", "protocol": "Determination of True Density by Helium Pychnometry.\nEquipment used: Micromeritics AccuPyc II 1340\nRun fill pressure 19.5 psig\nEquilibration rate 0.02 psig\nPercentage full scale 0.05%\nTesting was performed in duplicate."}, "[2]": {"conditions": "25° C.; for DVS weight gain at high relative humidity: 90% RH and above; for DVS weight above reference weight after sorption/desorption cycle: end of second desorption stage (0-95% RH-0%)", "protocol": "Dynamic Vapour Sorption (DVS) Analysis DVS analyses are performed using an SMS DVS Intrinsic analyser (serial number PF 140088) in open aluminium pans at 25° C. with a nitrogen purge gas at 100 ml/min. The stability criterion was a weight change lower than 0.002% on a 5 minute time frame (with a minimum of 10 min and a maximum of 100 min)."}, "[3]": {"conditions": "six months at 40° C. and 75% humidity", "protocol": "TETA.4HC obtained in accordance with Reference Example 3 was compressed to form a tablet. The tablet was aged for six months at 40° C. and 75% humidity."}, "[4]": {"test": "Heckel test (compaction simulator, yield pressure, strain rate sensitivity)", "conditions": "for Compact observations / Ejection Force / Peak Force of Upper punch / Yield Pressure: individual runs; for Yield pressure Slow (0.1 mm/s) / Yield pressure fast (300 mm/s): summary mean of runs; for Strain rate sensitivity: yield pressure at 300 mm/s compared to 0.1 mm/s"}, "[5]": {"protocol": "Onset, Peak Temperatures and Enthalpies Thermogravimetric Analysis (TGA) Thermogravimetric analyses were performed using a Pyris 1 TGA analyser (serial number 537N7052501) in sealed aluminium pans, punctured before analysis, under nitrogen flush at 20 mL/min."}, "[6]": {"conditions": "fast speed 300 mm/s, listed as Ref Example 3"}, "[7]": {"conditions": "slow speed 0.1 mm/s, listed as Ref Example 3"}}, "note": "Several values for one entry are separate records, joined by “and”; a condition that tells them apart may be missing. Equal values may be shown once. Read-outs that look alike come from different tables or passages of the source.", "data": [{"smiles": "Cl.Cl.Cl.Cl.NCCNCCNCCN", "note": "[Reference Example 3, triethylenetetramine tetrachloride, reference compound]", "values": [{"measurement": "True Density", "setting": "[1]; listed as Ref Example 3", "result": "1.3523 g/mL and 1.3431 g/mL"}, {"measurement": "True Density MEAN", "setting": "[1]; listed as Ref Example 3", "result": 1.3477, "unit": "g/mL"}, {"measurement": "DVS weight gain at high relative humidity", "setting": "[2]; listed as Ref Example 3", "result": "≥ 60.8", "unit": "%"}, {"measurement": "DVS weight above reference weight after sorption/desorption cycle", "setting": "[2]; listed as Form A", "result": "14-15%"}, {"measurement": "DVS weight above reference weight after sorption/desorption cycle", "setting": "[2]; listed as Ref Example 3", "result": 14.4, "unit": "%"}, {"measurement": "DVS weight above reference weight, minimum value reached", "setting": "[2]; second desorption stage", "result": 7.9, "unit": "%"}, {"measurement": "Tablet appearance after aging", "setting": "[3]", "result": "discoloured patches"}, {"measurement": "Compact strength", "setting": "[4]; fast speed 300 mm/s", "result": "4-6 Kiloponds"}, {"measurement": "Compact observations", "setting": "[4]; [6]", "result": "Good but blistering"}, {"measurement": "Ejection Force", "setting": "[4]; [6]", "result": "0.421 kN and 0.327 kN and 0.381 kN"}, {"measurement": "Peak Force of Upper punch", "setting": "[4]; [6]", "result": "14.644 kN and 14.752 kN and 14.617 kN"}, {"measurement": "Yield Pressure", "setting": "[4]; [6]", "result": "127.197 Mpa and 125.309 Mpa and 129.748 Mpa"}, {"measurement": "Compact strength", "setting": "[4]; [6]", "result": "6.59 Kiloponds and 4.27 Kiloponds and 4.75 Kiloponds"}, {"measurement": "Compact strength", "setting": "[4]; slow speed 0.1 mm/s", "result": "6-11 Kiloponds"}, {"measurement": "Compact observations", "setting": "[4]; [7]", "result": "Good"}, {"measurement": "Ejection Force", "setting": "[4]; [7]", "result": "0.039 kN and −0.007 kN and −0.020 kN"}, {"measurement": "Peak Force of Upper punch", "setting": "[4]; [7]", "result": "20.830 kN and 18.543 kN and 19.570 kN"}, {"measurement": "Yield Pressure", "setting": "[4]; [7]", "result": "101.529 Mpa and 95.501 Mpa and 97.474 Mpa"}, {"measurement": "Compact strength", "setting": "[4]; [7]", "result": "6.41 Kiloponds and 7.45 Kiloponds and 11.17 Kiloponds"}, {"measurement": "Yield pressure Slow (0.1 mm/s)", "setting": "[4]; listed as Ref Example 3", "result": 98.17, "unit": "Mpa"}, {"measurement": "Yield pressure fast (300 mm/s)", "setting": "[4]; listed as Ref Example 3", "result": 127.42, "unit": "Mpa"}, {"measurement": "Strain rate sensitivity", "setting": "[4]; listed as Ref Example 3", "result": 29.8, "unit": "%"}]}, {"smiles": "Cl.Cl.Cl.Cl.NCCNCCNCCN", "note": "[Example 2, triethylenetetramine tetrachloride]", "values": [{"measurement": "True Density", "setting": "[1]", "result": "1.3693 g/mL and 1.3973 g/mL and 1.3678 g/mL"}, {"measurement": "True Density MEAN", "setting": "[1]", "result": 1.3686, "unit": "g/mL"}, {"measurement": "DVS weight gain at high relative humidity", "setting": "[2]", "result": "≥ 55.8", "unit": "%"}, {"measurement": "DVS weight gain at high relative humidity", "setting": "[2]; listed as Form B", "result": "50-59%"}, {"measurement": "DVS weight above reference weight after sorption/desorption cycle", "setting": "[2]", "result": "almost reaches its reference weight"}, {"measurement": "TGA weight loss (total)", "setting": "[5]; 25-300° C., 10° C./min", "result": 10.24, "unit": "%"}, {"measurement": "TGA weight loss starting temperature", "setting": "[5]; 25-300° C., 10° C./min, nitrogen", "result": 225, "unit": "°C"}, {"measurement": "TGA weight loss", "setting": "[5]; between 225.0-289.5° C.", "result": 2.64, "unit": "%"}, {"measurement": "TGA weight loss", "setting": "[5]; between 289.5-299.0° C.", "result": 7.60, "unit": "%"}, {"measurement": "Compact strength", "setting": "[4]; fast speed 300 mm/s", "result": "9.83 Kiloponds and 11.58 Kiloponds and 8.88 Kiloponds"}, {"measurement": "Compact observations", "setting": "[4]; fast speed 300 mm/s", "result": "Good shiny"}, {"measurement": "Ejection Force", "setting": "[4]; fast speed 300 mm/s", "result": "0.441 kN and 0.456 kN and 0.417 kN"}, {"measurement": "Peak Force of Upper punch", "setting": "[4]; fast speed 300 mm/s", "result": "14.566 kN and 14.542 kN and 14.717 kN"}, {"measurement": "Yield Pressure", "setting": "[4]; fast speed 300 mm/s", "result": "129.865 Mpa and 129.108 Mpa and 129.861 Mpa"}, {"measurement": "Compact strength", "setting": "[4]; slow speed 0.1 mm/s", "result": "12.07 Kiloponds and 7.52 Kiloponds and 9.64 Kiloponds and 9.19 Kiloponds"}, {"measurement": "Compact observations", "setting": "[4]; slow speed 0.1 mm/s", "result": "Good shiny"}, {"measurement": "Ejection Force", "setting": "[4]; slow speed 0.1 mm/s", "result": "0.044 kN and 0.053 kN and 0.080 kN and 0.060 kN"}, {"measurement": "Peak Force of Upper punch", "setting": "[4]; slow speed 0.1 mm/s", "result": "20.211 kN and 24.088 kN and 24.175 kN and 23.906 kN"}, {"measurement": "Yield Pressure", "setting": "[4]; slow speed 0.1 mm/s", "result": "106.465 Mpa and 117.516 Mpa and 118.116 Mpa and 115.227 Mpa"}, {"measurement": "Yield pressure Slow (0.1 mm/s)", "setting": "[4]", "result": "114.33 Mpa (±5.39)"}, {"measurement": "Yield pressure fast (300 mm/s)", "setting": "[4]", "result": "129.61 Mpa (±0.44)"}, {"measurement": "Strain rate sensitivity", "setting": "[4]", "result": 13.4, "unit": "%"}]}]}
